# Measured values as given in patent publication US5216183A, “Cyclopentanone/cyclopentenone derivative” (Teijin Limited, priority 1988, dated 1993).
# Tested on: human osteoblasts (KK-3, 18PDL)
# Assay: Measurement of bone formation activity (KK-3, 14 days)
# Assay type: cell-based
# Protocol: Human osteoblasts (KK-3, 18PDL) were cultured in an α-MEM containing 10% fetal calf serum. After the growth became stationary, the compound was added in a given concentration in the presence of 2 mM α-glycerophosphate and treated for 14 days. The cell phase was washed with physiological saline, and the alkaline phosphatase activity (ALP) was measured through the absorption of OD415. Then, calcium (Ca) and phosphorus (P) were extracted with a 2N hydrochloric acid and quantitatively determined.
# [1] = Table 27, 10^-7 M, control 0.58 ± 0.03
# [2] = Table 27, 10^-7 M, control 11.83 ± 3.18
# [3] = Table 30, 10^-6 M, control 0.60 ± 0.02
# [4] = Table 30, 10^-6 M, control 3.00 ± 1.73
# [5] = Table 30, 10^-7 M, control 0.60 ± 0.02
# [6] = Table 30, 10^-7 M, control 3.00 ± 1.73
# [7] = Table 30, 10^-7 M, control 5.33 ± 1.15
# [8] = Table 36, 10^-6 M, control 1.17 ± 0.03
# [9] = Table 36, 10^-6 M, control 2.33 ± 1.15
# [10] = Table 35, 10^-5 M, control 1.23 ± 0.02
# [11] = Table 35, 10^-5 M, control 3.00 ± 1.00
# [12] = Table 35, 10^-6 M, control 1.23 ± 0.02
# [13] = Table 35, 10^-6 M, control 3.00 ± 1.00
# [14] = Table 35, 10^-6 M, control 5.67 ± 0.58
# [15] = Table 28, 10^-6 M, control 4.33 ± 0.58
compound,measurement,setting,value
O=C1C(SC2CCCCC2)=CC(O)(CCCCOc2ccccc2)C1=CC=CC(O)CCCO (stereo not shown) [drawing 1070],ALP,"Table 27, 10^-6 M, control 0.58 ± 0.03",0.64 ± 0.05 OD413 /dish
same,P,"Table 27, 10^-6 M, control 11.50 ± 1.73",24.83 ± 2.47 μg/dish
same,Ca,"Table 27, 10^-6 M, control 11.83 ± 3.18",33.50 ± 3.91 μg/dish
same,ALP,[1],0.53 OD413 /dish
same,Ca,[2],19.67 μg/dish
O=C1C(SC2CCCCC2)=CC(O)(CCCCOc2ccccc2)C1C(O)C=CC(O)CCCO (stereo not shown),ALP,[1],0.55 ± 0.04 OD413 /dish
same,P,"Table 27, 10^-7 M, control 11.50 ± 1.73",11.67 ± 3.18 μg/dish
same,Ca,[2],13.83 ± 1.15 μg/dish
same,ALP,"Table 27, 10^-8 M, control 0.58 ± 0.03",0.36 OD413 /dish
same,Ca,"Table 27, 10^-8 M, control 11.83 ± 3.18",20.17 μg/dish
Cn1ccnc1SC1=CC(O)(CCCCOc2ccccc2)C(=Cc2ccc(CC(CO)CO)cc2)C1=O (stereo not shown),ALP,[3],0.08 OD415 /dish
same,Ca,[4],116.00 μg/dish
same,ALP,[5],0.66 ± 0.03 OD415 /dish
same,Ca,[6],11.00 ± 1.73 μg/dish
same,P,[7],11.67 ± 1.15 μg/dish
O=C1C(Sc2ccccn2)=CC(O)(CCCCOc2ccccc2)C1=CC=CC(O)CCCO (stereo not shown),ALP,"Table 26, 10^-6 M, control 0.27 ± 0.04",0.36 ± 0.12 OD413 /dish
same,P,"Table 26, 10^-6 M, control 30.68 ± 3.33",42.28 ± 6.99 μg/dish
same,Ca,"Table 26, 10^-6 M, control 45.61 ± 6.19",70.42 ± 7.82 μg/dish
same,ALP,"Table 26, 10^-7 M, control 0.27 ± 0.04",0.29 ± 0.04 OD413 /dish
same,Ca,"Table 26, 10^-7 M, control 45.61 ± 6.19",56.85 μg/dish
CSC1=CC(CCCCOc2ccccc2)C(=C/C=C/C(O)CCCO)C1=O (stereo not shown),ALP,"Table 33, 10^-5 M, control 0.80 ± 0.02",0.79 ± 0.02 OD415 /dish
same,P,"Table 33, 10^-5 M, control 15.67 ± 1.53",31.00 ± 1.00 μg/dish
same,Ca,"Table 33, 10^-5 M, control 22.67 ± 3.06",50.67 ± 1.15 μg/dish
same,ALP,"Table 33, 10^-6 M, control 0.80 ± 0.02",0.76 OD415 /dish
same,Ca,"Table 33, 10^-6 M, control 22.67 ± 3.06",19.67 ± 2.52 μg/dish
Cn1ccnc1SC1=CC(O)(CCCCOc2ccccc2)C(C(O)C2=C(C(C)(C)O)CCCC2)C1=O (stereo not shown),ALP,"Table 36, 10^-5 M, control 1.17 ± 0.03",0.87 OD415 /dish
same,Ca,"Table 36, 10^-5 M, control 2.33 ± 1.15",50.67 μg/dish
same,ALP,[8],1.20 ± 0.05 OD415 /dish
same,Ca,[9],2.00 ± 0.00 μg/dish
same,P,"Table 36, 10^-6 M, control 5.00 ± 0.00",5.00 ± 1.00 μg/dish
Cn1ccnc1SC1=CC(O)(CCCCOc2ccccc2)C(=CC=C2CCCCC2)C1=O (stereo not shown),ALP,[8],1.09 OD415 /dish
same,Ca,[9],15.33 μg/dish
same,ALP,"Table 36, 10^-7 M, control 1.17 ± 0.03",1.19 ± 0.06 OD415 /dish
same,Ca,"Table 36, 10^-7 M, control 2.33 ± 1.15",3.33 ± 0.58 μg/dish
same,P,"Table 36, 10^-7 M, control 5.00 ± 0.00",5.67 ± 0.58 μg/dish
CC(=O)OC(/C=C/C(O)CCCO)C1C(=O)C(Sc2nccn2C)=CC1(O)CCCCOc1ccccc1 (stereo not shown),ALP,[10],0.15 OD415 /dish
same,Ca,[11],137.00 μg/dish
same,ALP,[12],1.28 ± 0.03 OD415 /dish
same,Ca,[13],51.67 ± 8.08 μg/dish
same,P,[14],35.33 ± 5.03 μg/dish
COC(=O)COc1cccc(C=C2C(=O)C(SC)=CC2(O)CCCCOc2ccccc2)c1 (stereo not shown) [drawing 1073],ALP,"Table 29, 10^-7 M, control 0.77 ± 0.20",0.52 ± 0.10 OD413 /dish
same,P,"Table 29, 10^-7 M, control 18.64 ± 3.16",21.72 ± 8.88 μg/dish
same,Ca,"Table 29, 10^-7 M, control 31.26 ± 3.00",36.18 ± 14.29 μg/dish
same,ALP,"Table 29, 10^-8 M, control 0.77 ± 0.20",0.64 OD413 /dish
same,Ca,"Table 29, 10^-8 M, control 31.26 ± 3.00",49.16 ± 26.04 μg/dish
CSC1=CC(O)C(=CC=CC(O)CCCO)C1=O (stereo not shown) [drawing 1082],ALP,"Table 32, 10^-5 M, control 0.80 ± 0.01",0.53 OD415 /dish
same,Ca,"Table 32, 10^-5 M, control 23.00 ± 1.00",57.33 ± 2.08 μg/dish
same,ALP,"Table 32, 10^-6 M, control 0.80 ± 0.01",0.81 ± 0.06 OD415 /dish
same,P,"Table 32, 10^-6 M, control 15.67 ± 0.58",16.33 ± 2.08 μg/dish
same,Ca,"Table 32, 10^-6 M, control 23.00 ± 1.00",23.00 ± 3.46 μg/dish
CC(C)(C)C1=C(Sc2ccccc2)C(=O)C(=CC=CC(O)CCCO)C1O (stereo not shown),ALP,"Table 31, 10^-7 M, control 0.18 ± 0.06",0.16 ± 0.04 OD415 /dish
same,Ca,"Table 31, 10^-7 M, control 1.88 ± 0.31",2.43 ± 0.19 μg/dish
same,P,"Table 31, 10^-7 M, control 4.73 ± 0.37",4.68 ± 0.27 μg/dish
same,ALP,"Table 31, 10^-8 M, control 0.18 ± 0.06",0.15 OD415 /dish
same,Ca,"Table 31, 10^-8 M, control 1.88 ± 0.31",4.07 μg/dish
CSC1=CC(O)(CCCCOc2ccccc2)C(C(/C=C/C(O)CCCO)OC(C)=O)C1=O (stereo not shown),ALP,[10],0.17 OD415 /dish
same,Ca,[11],104.00 μg/dish
same,ALP,[12],1.10 ± 0.06 OD415 /dish
same,Ca,[13],24.08 ± 2.00 μg/dish
same,P,[14],18.00 ± 1.00 μg/dish
Cn1ccnc1SC1=CC(O)(CCCCOc2ccccc2)C(C(O)C=CC(O)CCCO)C1=O (stereo not shown) [drawing 1072],ALP,"Table 28, 10^-6 M, control 0.72 ± 0.01",0.76 ± 0.08 OD413 /dish
same,Ca,[15],26.17 ± 3.25 μg/dish
same,P,[15],19.33 ± 2.02 μg/dish
same,ALP,"Table 28, 10^-7 M, control 0.72 ± 0.01",0.81 OD413 /dish
same,Ca,"Table 28, 10^-7 M, control 4.33 ± 0.58",1.17 μg/dish
Cn1ccnc1SC1=CC(O)(CCCCOc2ccccc2)C(=CC=CC2(O)CCCCC2)C1=O (stereo not shown),ALP,[3],0.11 OD415 /dish
same,Ca,[4],85.67 μg/dish
same,ALP,[5],0.58 ± 0.03 OD415 /dish
same,Ca,[6],14.00 ± 1.00 μg/dish
same,P,[7],12.67 ± 1.15 μg/dish
